# Biological target: Leishmania donovani tyrosyl-tRNA synthetase (LdTyrRS) (Leishmania donovani, UniProt A0A3Q8ID88)
# Assay: X-ray co-crystal structure at […] Å
# Format: biochemical
compound,measurement,value
"Nc1ncnc2c1ncn2[C@@H]1O[C@H](COS(=O)(=O)NC(=O)[C@@H](N)Cc2ccc(O)cc2)[C@@H](O)[C@H]1O [TyrSA, 5'-O-[N-(L-tyrosyl)sulfamoyl]adenosine]",IC50,0.69 nM

# — paper PMC5484532 (Biochimie, 2017)
